Values joined by “and” are separate entries in the source; they are usually repeats but may differ in a detail not shown here. Identical values can stand only once.
Tested on: 227483-062-R1-J1-PDC complex spheroids with HUVEC/MSC, viability
Test: Anticancer human tumor 227483-062-R1-J1-PDC patient-derived pancreatic carcinoma cell line growth inhibition [CLK]
Conditions: for viability, T/C: stronger effect = lower value
In short: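 Multi-cell-type spheroids combined patient-derived tumor cells with HUVEC endothelial cells and human mesenchymal stem cells. Paired agents were dosed in half-log steps down from about clinical Cmax, or from 10 microM where Cmax was unknown.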

[1] = curve of first compound, second compound 0.0316 µM
[2] = curve of first compound, second compound 0.1 µM
[3] = curve of first compound, second compound 0.316 µM
[4] = curve of first compound, second compound 1 µM
[5] = curve of first compound, second compound 3.16 µM
[6] = curve of first compound, second compound 10 µM
[7] = second compound 0.0316 µM, first compound 0.0316 µM
[8] = second compound 0.0316 µM, first compound 0.1 µM
[9] = second compound 0.0316 µM, first compound 0.316 µM
[10] = second compound 0.0316 µM, first compound 1 µM
[11] = second compound 0.0316 µM, first compound 3.16 µM
[12] = second compound 0.0316 µM, first compound 10 µM
[13] = second compound 0.1 µM, first compound 0.0316 µM
[14] = second compound 0.1 µM, first compound 0.1 µM
[15] = second compound 0.1 µM, first compound 0.316 µM
[16] = second compound 0.1 µM, first compound 1 µM
[17] = second compound 0.1 µM, first compound 3.16 µM
[18] = second compound 0.1 µM, first compound 10 µM
[19] = second compound 0.316 µM, first compound 0.0316 µM
[20] = second compound 0.316 µM, first compound 0.1 µM
[21] = second compound 0.316 µM, first compound 0.316 µM
[22] = second compound 0.316 µM, first compound 1 µM
[23] = second compound 0.316 µM, first compound 3.16 µM
[24] = second compound 0.316 µM, first compound 10 µM
[25] = second compound 1 µM, first compound 0.0316 µM
[26] = second compound 1 µM, first compound 0.1 µM
[27] = second compound 1 µM, first compound 0.316 µM
[28] = second compound 1 µM, first compound 1 µM
[29] = second compound 1 µM, first compound 3.16 µM
[30] = second compound 1 µM, first compound 10 µM
[31] = second compound 3.16 µM, first compound 0.0316 µM
[32] = second compound 3.16 µM, first compound 0.1 µM
[33] = second compound 3.16 µM, first compound 0.316 µM
[34] = second compound 3.16 µM, first compound 1 µM
[35] = second compound 3.16 µM, first compound 3.16 µM
[36] = second compound 3.16 µM, first compound 10 µM
[37] = second compound 10 µM, first compound 0.0316 µM
[38] = second compound 10 µM, first compound 0.1 µM
[39] = second compound 10 µM, first compound 0.316 µM
[40] = second compound 10 µM, first compound 1 µM
[41] = second compound 10 µM, first compound 3.16 µM
[42] = second compound 10 µM, first compound 10 µM
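Note: spheroids exposed to compounds for seven days before readout.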
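Throughout, for viability, T/C: percent of DMSO vehicle control luminescence as 100% viability.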

C=C(F)C(=O)N1CCN(c2nc(OCC3CCCN3C)nc3c2CCN(c2cccc4cccc(Cl)c24)C3)CC1CC#N (stereo not drawn) + CN1CCN(c2cc(C(=O)Nc3cc4cc(-c5cnn(C)c5)ccc4cn3)ccn2)CC1
IC50 [1]: 6.19 µM | IC50 [2]: 4.89 µM | IC50 [3]: < 0.0316 µM | IC50 [4]: < 0.0316 µM | IC50 [5]: < 0.0316 µM | IC50 [6]: < 0.0316 µM | viability, T/C [7]: 87.7% | viability, T/C [8]: 104% | viability, T/C [9]: 102% | viability, T/C [10]: 86.8% | viability, T/C [11]: 89.8% | viability, T/C [12]: 21.3% | viability, T/C [13]: 67.6% | viability, T/C [14]: 73.8% | viability, T/C [15]: 68% | viability, T/C [16]: 78.8% | viability, T/C [17]: 78.2% | viability, T/C [18]: 11.8% | viability, T/C [19]: 5.59% | viability, T/C [20]: 5.63% | viability, T/C [21]: 5.48% | viability, T/C [22]: 4.47% | viability, T/C [23]: 5.37% | viability, T/C [24]: 0.42% | viability, T/C [25]: 3.8% | viability, T/C [26]: 3.22% | viability, T/C [27]: 2.15% | viability, T/C [28]: 3.98% | viability, T/C [29]: 0.88% | viability, T/C [30]: 0.97% | viability, T/C [31]: 5.83% | viability, T/C [32]: 2.98% | viability, T/C [33]: 3.49% | viability, T/C [34]: 4.77% | viability, T/C [35]: 1.3% | viability, T/C [36]: 1.8% | viability, T/C [37]: 3.7% | viability, T/C [38]: 1.84% | viability, T/C [39]: 3.88% | viability, T/C [40]: 2.09% | viability, T/C [41]: 1.69% | viability, T/C [42]: 0.39%

CC1COCCN1c1cc(C2(S(C)(=N)=O)CC2)nc(-c2ccnc3[nH]ccc23)n1 (stereo not drawn)
viability, T/C (compound 0.0316 µM): 98% and 93.4% | viability, T/C (compound 0.1 µM): 93.6% and 101% | viability, T/C (compound 0.316 µM): 89.4% and 103% | viability, T/C (compound 1 µM): 110% and 109% | viability, T/C (compound 3.16 µM): 86.9% and 78.7% | viability, T/C (compound 10 µM): 62.2% and 53.5% | IC50 (curve of compound): > 10 µM

NC(=O)C(=Cn1cnc(-c2cc(C(F)(F)F)cc(C(F)(F)F)c2)n1)c1cncnc1 + CN1CCN(c2cc(C(=O)Nc3cc4cc(-c5cnn(C)c5)ccc4cn3)ccn2)CC1
IC50 [1]: 0.387 µM | IC50 [2]: 0.0621 µM | IC50 [3]: < 0.00949 µM | IC50 [4]: < 0.00949 µM | IC50 [5]: < 0.00949 µM | IC50 [6]: < 0.00949 µM | viability, T/C (second compound 0.0316 µM, first compound 0.00949 µM): 83.4% | viability, T/C (second compound 0.0316 µM, first compound 0.03 µM): 105% | viability, T/C (second compound 0.0316 µM, first compound 0.0949 µM): 78.6% | viability, T/C (second compound 0.0316 µM, first compound 0.3 µM): 60.6% | viability, T/C (second compound 0.0316 µM, first compound 0.949 µM): 18.8% | viability, T/C (second compound 0.0316 µM, first compound 3 µM): 5.44% | viability, T/C (second compound 0.1 µM, first compound 0.00949 µM): 69.7% | viability, T/C (second compound 0.1 µM, first compound 0.03 µM): 76.6% | viability, T/C (second compound 0.1 µM, first compound 0.0949 µM): 35.9% | viability, T/C (second compound 0.1 µM, first compound 0.3 µM): 13.9% | viability, T/C (second compound 0.1 µM, first compound 0.949 µM): 3.19% | viability, T/C (second compound 0.1 µM, first compound 3 µM): 1.66% | viability, T/C (second compound 0.316 µM, first compound 0.00949 µM): 3.14% | viability, T/C (second compound 0.316 µM, first compound 0.03 µM): 3.15% | viability, T/C (second compound 0.316 µM, first compound 0.0949 µM): 1.63% | viability, T/C (second compound 0.316 µM, first compound 0.3 µM): 1.68% | viability, T/C (second compound 0.316 µM, first compound 0.949 µM): 1.4% | viability, T/C (second compound 0.316 µM, first compound 3 µM): 1.39% | viability, T/C (second compound 1 µM, first compound 0.00949 µM): 1.5% | viability, T/C (second compound 1 µM, first compound 0.03 µM): 1.97% | viability, T/C (second compound 1 µM, first compound 0.0949 µM): 1.83% | viability, T/C (second compound 1 µM, first compound 0.3 µM): 2.32% | viability, T/C (second compound 1 µM, first compound 0.949 µM): 2.43% | viability, T/C (second compound 1 µM, first compound 3 µM): 2.17% | viability, T/C (second compound 3.16 µM, first compound 0.00949 µM): 1.89% | viability, T/C (second compound 3.16 µM, first compound 0.03 µM): 3.42% | viability, T/C (second compound 3.16 µM, first compound 0.0949 µM): 3.73% | viability, T/C (second compound 3.16 µM, first compound 0.3 µM): 5.05% | viability, T/C (second compound 3.16 µM, first compound 0.949 µM): 3.43% | viability, T/C (second compound 3.16 µM, first compound 3 µM): 3.12% | viability, T/C (second compound 10 µM, first compound 0.00949 µM): 1.57% | viability, T/C (second compound 10 µM, first compound 0.03 µM): 2.14% | viability, T/C (second compound 10 µM, first compound 0.0949 µM): 2.32% | viability, T/C (second compound 10 µM, first compound 0.3 µM): 2.15% | viability, T/C (second compound 10 µM, first compound 0.949 µM): 1.97% | viability, T/C (second compound 10 µM, first compound 3 µM): 1.44%

CC(Nc1ccc2c(c1)OCCn1cc(N3C(=O)OCC3C(F)F)nc1-2)C(N)=O (stereo not drawn) + CNC(=O)c1ccc(Nc2nc(OC3CCCC3)c3c(-c4ccc5nc(C)oc5c4)c[nH]c3n2)c(OC)c1
IC50 [1]: > 10 µM | IC50 [2]: > 10 µM | IC50 [3]: > 10 µM | IC50 [4]: 0.0733 µM | IC50 [5]: < 0.0316 µM | IC50 [6]: < 0.0316 µM | viability, T/C [7]: 105% | viability, T/C [8]: 82.3% | viability, T/C [9]: 83.9% | viability, T/C [10]: 85.5% | viability, T/C [11]: 65.4% | viability, T/C [12]: 67.3% | viability, T/C [13]: 88% | viability, T/C [14]: 78.4% | viability, T/C [15]: 66.1% | viability, T/C [16]: 70.3% | viability, T/C [17]: 55.7% | viability, T/C [18]: 58.2% | viability, T/C [19]: 92.5% | viability, T/C [20]: 64.3% | viability, T/C [21]: 65.5% | viability, T/C [22]: 52.4% | viability, T/C [23]: 56.9% | viability, T/C [24]: 49.7% | viability, T/C [25]: 60.6% | viability, T/C [26]: 45.1% | viability, T/C [27]: 46.9% | viability, T/C [28]: 47.7% | viability, T/C [29]: 39.7% | viability, T/C [30]: 41.9% | viability, T/C [31]: 45% | viability, T/C [32]: 49.8% | viability, T/C [33]: 32% | viability, T/C [34]: 33.4% | viability, T/C [35]: 35.4% | viability, T/C [36]: 25.9% | viability, T/C [37]: 38.6% | viability, T/C [38]: 46.2% | viability, T/C [39]: 37.7% | viability, T/C [40]: 27.8% | viability, T/C [41]: 32.9% | viability, T/C [42]: 24.9%

— PubChem BioAssay AID2060623 (Molecular Pharmacology Branch, DTP, NCI, 2025)
